≈ marks a conversion by molar mass, not a printed value. Where “and” joins values, the source holds several entries; their conditions need not be identical. Equal entries are not always repeated. Where two headings read alike, the source gives them in different places. Residues, ends and D or L forms follow the SMILES beside them.
Legend:
[1] = test system: K. pneumoniae FADDI-KP032; assay type: cell-based, Klebsiella pneumoniae
Procedure, shortened: (§1)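 MICs were determined by broth microdilution in cation-adjusted Mueller–Hinton broth (CaMHB), with clinical isolates tested alongside ATCC strains.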

[2] = test system: K. pneumoniae FADDI-KP065; assay type: cell-based, Klebsiella pneumoniae
Procedure, shortened: as §1

[3] = test system: KCNJ16 knockout HK-2 cells; assay: Cell viability after 24 h treatment; assay type: cell-based, human; conditions: KCNJ16 knockout HK-2 cells, 24 h, Fig. 6b
Protocol: (§2) Fig. 6 Transcriptomic changes in human kidney proximal tubular HK-2 cells following treatments with polymyxin B (PMB), colistin (COL), F287, F319, and F365. a Numbers of differentially expressed genes. Distinctive intersections are color-coded. b Cell viability difference (two-tailed Student’s t-test, n = 4 biologically independent cells, Benjamini–Hochberg adjusted P-values) between wild-type HK-2 and KCNJ16 knockout (KO) cells following 24 h treatment with lipopeptides. n.s., not significant; ^*adjusted P < 0.05, ^**adjusted P < 0.01, ^***adjusted P < 0.001. Data are shown as mean ± s.d. and individual data points. c Extracted transcriptional regulatory network from Signor database with 1-step neighbor constraints (enlarged for detail). Source data are provided as a Source Data file.

Swiss mice = assay: Acute toxicity in mice (maximum tolerated dose, IV bolus); assay type: in vivo, mouse; conditions: for MTD, single replicate: replicates 1-4
Protocol: Lipopeptide solutions were prepared in 0.9% saline and stored at 4 °C before use. Swiss mice (female, 7-week-old, 22–28 g) were used in the study. A mouse was administered an intravenous bolus of the lipopeptide (mg/kg free base) through a lateral tail vein (≤0.1 mL). After the injection, the mouse was released back into the cage and monitored for clinical signs of toxicity from 0 to 24 h after injection as follows: every 10 min in the first 2 h, every half hour from 2 to 4 h, every hour from 4 to 12 h, and every 2 h from 12 to 24 h.

A. baumannii AB5075 = assay type: cell-based, Acinetobacter baumannii
Procedure, shortened: as §1

A. baumannii ATCC 19606 = assay type: cell-based, Acinetobacter baumannii
Procedure, shortened: as §1

A. baumannii FADDI-AB034 = assay type: cell-based, Acinetobacter baumannii
Procedure, shortened: as §1

A. baumannii FADDI-AB030 = assay type: cell-based, Acinetobacter baumannii
Procedure, shortened: as §1

P. aeruginosa ATCC 27853 = assay type: cell-based, Pseudomonas aeruginosa
Procedure, shortened: as §1

[4] = test system: P. aeruginosa FADDI-PA038; assay type: cell-based, Pseudomonas aeruginosa
Procedure, shortened: as §1

[5] = test system: P. aeruginosa FADDI-PA025; assay type: cell-based, Pseudomonas aeruginosa
Procedure, shortened: as §1

Swiss mice, kidney = assay: Nephrotoxicity in mice (kidney histopathology); assay type: in vivo, mouse; conditions: for Kidney histopathology (SQS Score): 72 mg/kg/d subcutaneously in six divided doses every 2 h, n = 3
Procedure, shortened: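 Female Swiss mice (7-week-old, 22–28 g) received lipopeptides in saline either s.c. at 12 mg/kg ×6 every 2 h (total 72 mg/kg, n = 3) or i.p. at 20 or 25 mg/kg ×6 every 2 h (total 120 mg/kg, n = 6; 150 mg/kg, n = 3). Right kidney collected 20 h after last dose, fixed in 10% buffered formalin (pH 7.4), histology scored blinded.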

[6] = Cell viability after 24 h treatment; assay type: cell-based, human; conditions: human, KCNJ16 knockout HK-2 cells (kidney proximal tubular), Cell viability, KCNJ16 KO, KCNJ16 knockout HK-2 cells, 24 h, Fig. 6b
Protocol: as §2

[7] = test system: MDR clinical isolates of A. baumannii (n = 210, 200 carbapenem-resistant); assay type: cell-based, Acinetobacter baumannii
Procedure, shortened: (§3)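 Broth microdilution, CaMHB; MIC read as the antibacterial endpoint against ATCC reference strains and clinical isolates.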

[8] = test system: MDR clinical isolates of P. aeruginosa (n = 213, 55 carbapenem-resistant); assay type: cell-based, Pseudomonas aeruginosa
Procedure, shortened: as §3

[9] = MDR clinical isolates of (n = 210, 200 carbapenem-resistant)
[10] = MDR clinical isolates of (n = 213, 55 carbapenem-resistant)

In the case of Colistin [reference compound], the “MIC K. pneumoniae FADDI-KP032” value ([1]; carbapenem-resistant isolate) is reported as 1 mg/L, the “MIC K. pneumoniae FADDI-KP065” value ([2]; carbapenem-resistant isolate) is reported as 0.25 mg/L and the “Cell viability, KCNJ16 KO, Rep2” value ([3]; replicate 2) is reported as 81.0179. The “Cell viability, KCNJ16 KO, Rep3” value ([3]; replicate 3) was 91.8189, the “Cell viability, KCNJ16 KO, Rep4” value ([3]; replicate 4) was 66.4023 and the “MTD, single replicate” value (Swiss mice) was 6 mg/kg and 5.8 mg/kg and 5 mg/kg. The “average maximum tolerated dose (MTD)” value (Swiss mice; single IV bolus dose, n = 4) was 5.3 mg/kg, the “MIC A. baumannii AB5075” value (A. baumannii AB5075) was 0.5 mg/L and the “MIC A. baumannii ATCC 19606” value (A. baumannii ATCC 19606) was 1 mg/L. For the same compound, the “MIC A. baumannii FADDI-AB034” value (A. baumannii FADDI-AB034; carbapenem-resistant isolate) was 0.5 mg/L, the “MIC A. baumannii FADDI-AB030” value (A. baumannii FADDI-AB030; carbapenem-resistant isolate) was 0.5 mg/L and the “MIC P. aeruginosa ATCC 27853” value (P. aeruginosa ATCC 27853) was 0.5 mg/L. The “increase of MIC in the presence of lung surfactant” value (P. aeruginosa ATCC 27853; 10% Survanta vs none) was 8 fold, the MIC, 10% Survanta (P. aeruginosa ATCC 27853; P. aeruginosa ATCC 27853, 10% Survanta) was 8 mg/L and the MIC, No Survanta (P. aeruginosa ATCC 27853; P. aeruginosa ATCC 27853, no surfactant) was 1 mg/L. The “MIC P. aeruginosa FADDI-PA038” value ([4]; carbapenem-resistant isolate) was 1 mg/L, the “MIC P. aeruginosa FADDI-PA025” value ([5]; MDR clinical isolate) was 2 mg/L and the “Kidney histopathology (SQS Score)” value (Swiss mice, kidney) was “+5 (SQS + 5 = severe damage (overall score, >60))”. The “Kidney histopathology, mice with the SQS score” value (Swiss mice, kidney; mouse, in vivo) was 3/3.

For `CCCCCCCC(=O)N[C@@H](CCN)C(=O)N[C@H](C(=O)N[C@@H](CN)C(=O)N[C@H]1CCNC(=O)[C@H]([C@@H](C)O)NC(=O)[C@H](CCN)NC(=O)[C@H](CCN)NC(=O)[C@H](CC)NC(=O)[C@@H](CC(C)C)NC(=O)[C@H](CCN)NC1=O)[C@@H](C)O` [Lipopeptide F287] (HELM PEPTIDE1{[CCCCCCCC(=O)[*:2]].[Dab].T.[NC[C@H](N[*:1])C(=O)[*:2]].[Dab].[Dab].[dL].[Abu].[Dab].[Dab].T}$PEPTIDE1,PEPTIDE1,5:R3-11:R2$$$V2.0), the “MIC K. pneumoniae FADDI-KP032” value ([1]; FADDI-KP032) was under 0.125 mg/L, the “MIC K. pneumoniae FADDI-KP065” value ([2]; FADDI-KP065) was under 0.125 mg/L and the viability at 24 h ([6]; Rep1, replicate 1, read-out: Cell viability, KCNJ16 KO, Rep1) was 91.7%. The viability at 24 h ([6]; Rep2, replicate 2, read-out: Cell viability, KCNJ16 KO, Rep2) was 77.1%, the viability at 24 h ([6]; Rep3, replicate 3, read-out: Cell viability, KCNJ16 KO, Rep3) was 82.8% and the viability at 24 h ([6]; Rep4, replicate 4, read-out: Cell viability, KCNJ16 KO, Rep4) was 69.6%. For the same compound, the “MTD, single replicate” value (Swiss mice) was 6.6 mg/kg, the “MIC A. baumannii AB5075” value (A. baumannii AB5075; AB5075) was 0.5 mg/L (≈ 0.449 µM) and the MIC50 [7, 9] was 0.25 mg/L (≈ 0.225 µM). The MIC90 [7, 9] was 0.5 mg/L (≈ 0.449 µM), the “potency relative to polymyxin B” value ([7]; MIC50/MIC90, A. baumannii panel) was “up to 8 fold” and the Number of isolates ([7]; isolates with MIC 0.05 µg/mL) was 0. It also gave a Number of isolates ([7]; isolates with MIC 0.125 µg/mL) of 15, a Number of isolates ([7]; isolates with MIC 0.25 µg/mL) of 126 and a Number of isolates ([7]; isolates with MIC 0.5 µg/mL) of 54. For the same compound, the Number of isolates ([7]; isolates with MIC 1 µg/mL) was 8, the Number of isolates ([7]; isolates with MIC 2 µg/mL) was 2 and the Number of isolates ([7]; isolates with MIC 4 µg/mL) was 0. For the same compound, the Number of isolates ([7]; isolates with MIC 8 µg/mL) was 1, the Number of isolates ([7]; isolates with MIC 16 µg/mL) was 0 and the Number of isolates ([7]; isolates with MIC 32 µg/mL) was 0. For the same compound, the Number of isolates ([7]; isolates with MIC 64 µg/mL) was 1, the Number of isolates ([7]; isolates with MIC >64 µg/mL) was 0 and the “MIC A. baumannii ATCC 19606” value (A. baumannii ATCC 19606; ATCC 19606) was 0.25 mg/L (≈ 0.225 µM). For the same compound, the “MIC A. baumannii FADDI-AB034” value (A. baumannii FADDI-AB034; FADDI-AB034) was under 0.125 mg/L, the “MIC A. baumannii FADDI-AB030” value (A. baumannii FADDI-AB030; FADDI-AB030) was 0.25 mg/L (≈ 0.225 µM) and the MIC50 [8, 10] was 1 mg/L (≈ 0.898 µM). It also gave an MIC90 [8, 10] of 1 mg/L (≈ 0.898 µM), a Number of isolates ([8]; isolates with MIC 0.05 μg/mL (so in the source)) of 0 and a Number of isolates ([8]; isolates with MIC 0.125 μg/mL (so in the source)) of 0. The Number of isolates ([8]; isolates with MIC 0.25 μg/mL (so in the source)) was 7, the Number of isolates ([8]; isolates with MIC 0.5 μg/mL (so in the source)) was 26 and the Number of isolates ([8]; isolates with MIC 1 μg/mL (so in the source)) was 168. The Number of isolates ([8]; isolates with MIC 2 μg/mL (so in the source)) was 9, the Number of isolates ([8]; isolates with MIC 4 μg/mL (so in the source)) was 0 and the Number of isolates ([8]; isolates with MIC 8 μg/mL (so in the source)) was 1. For the same compound, the Number of isolates ([8]; isolates with MIC 16 μg/mL (so in the source)) was 0, the Number of isolates ([8]; isolates with MIC 32 μg/mL (so in the source)) was 2 and the Number of isolates ([8]; isolates with MIC 64 μg/mL (so in the source)) was 0. For the same compound, the Number of isolates ([8]; isolates with MIC >64 μg/mL (so in the source)) was 0, the “MIC P. aeruginosa ATCC 27853” value (P. aeruginosa ATCC 27853; ATCC 27853) was 0.5 mg/L (≈ 0.449 µM) and the MIC, No Survanta (P. aeruginosa ATCC 27853; ATCC 27853) was 1 mg/L (≈ 0.898 µM). For the same compound, the “MIC P. aeruginosa FADDI-PA038” value ([4]; FADDI-PA038) was 0.5 mg/L (≈ 0.449 µM), the “MIC P. aeruginosa FADDI-PA025” value ([5]; FADDI-PA025) was 2 mg/L (≈ 1.8 µM) and the “Kidney histopathology (SQS Score)” value (Swiss mice, kidney) was 0 (SQS 0 = no significant change (overall score, <1)). The “Kidney histopathology, mice with the SQS score” value (Swiss mice, kidney; mouse, in vivo) was 3/3 and the “Kidney histological damage, mice with the given grade” value (Swiss mice, kidney; mouse, in vivo, ip, 120 mg/kg/day) was 2/6.
